# Laboratory results: doi:10.1101/2025.05.30.657074, “A covalent recognition strategy enables conspecific mate identification” (bioRxiv, 2025)
# Assays:
# BmOR1/Orco = BmOR1/Orco (Bombyx mori, UniProt Q5WA61); assay: GCaMP6 calcium flux assay, wild-type BmOR1/Orco; type: cell-based
# Text: (§1) The first insect pheromone system characterized at the molecular level is that of Bombyx mori, a moth long known to navigate towards its mate guided solely by pheromone cues with impressive navigation accuracy. Two PR/Orco complexes, BmOR1/BmOrco and BmOR3/BmOrco, have been linked to the behavioral responses to pheromones in B. mori (Figure 1A). The conspecific pheromone, bombykol, is detected through BmOR1/Orco and leads to sexual attraction. The heterospecific pheromone, bombykal, is sensed through BmOR3/Orco, and leads to suppression of mating behavior. We first characterized the extent to which both PR/Orco complexes are selective towards their cognate ligands. We used a previously established calcium flux functional assay where we co-transfected HEK293 cells with either BmOR1 or BmOR3, along with the coreceptor, BmOrco (here on referred to as Orco), and the fluorescent calcium reporter, GCaMP6 (Figure 1C). In this assay, ligand-activation of the heteromeric ion channel complexes by addition of either bombykol or bombykal leads to calcium influx, read out as GCaMP6 fluorescence changes that can be monitored in real-time and dose-dependent manner using a fluorescence plate reader. […] But we also found both PR/Orco complexes to be somewhat promiscuous: both complexes are activated by their non-cognate pheromones (bombykal for BmOR1/Orco and bombykol for BmOR3/Orco) with a response that is ~10 fold smaller than their cognate pheromones. […] Instead, two complexes with reciprocal specificities enable an unequivocal response to bombykal and bombykol across all concentrations, ensuring the behavioral accuracy needed for mate selection.
# (§2) The assay was performed similarly to method descriptions in previous studies.
# (§3) All DNA constructs used in this assay were cloned into a modified pME18 vector that contains a SV40 promotor.
# (§4) Each transfection condition (per well) contained a total of 300 ng of plasmids in 1:1:1 ratio of the GCaMP6, Orco, and the corresponding OR plasmid that was diluted in 4.8 uL of OptiMEM (Gibco) along with 0.1 uL of P3000. The mixture was incubated for 5 minutes and then further incubated for 20 minutes after being mixed with Lipofectamine 3000 (Invitrogen) diluted in OptiMEM. This mixture was scaled accordingly to batch transfect 50-100 wells per construct per plate.
# (§5) HEK293T cells were maintained at 37°C with 5% carbon dioxide and grown in high glucose DMEM enhanced with 10% FBS and 1% GlutaMAX (Gibco). Cells were detached with TrypLE Express Enzyme and resuspended in FluoroBrite DMEM (Gibco) with 10% FBS and 1% GlutaMAX (Gibco) to a concentration of 5 × 10^5 cells/ml. Cells were combined with each transfection condition and added to 2x16 wells of a 384-well plate (Grenier CELLSTAR). Cells were kept at 37°C for 18-20 hours before being used for fluorescence plate reading.
# (§6) Odorant plates were prepared using D300e (Hewlett Packard), a digital, non-contact dispenser. Briefly, stock solutions of bombykol and bombykal were prepared in DMSO and plated onto 384-plates (Greiner, Catalog #784201) in a titrating volume to obtain a concentration series ranging between 316 nM and 100 mM with a final volume of 0.2 µL.
# (§7) The odorant plates were kept at −20 °C until usage.
# (§8) On the day of the GCaMP6 assay, Bravo (Agilent), a versatile liquid handler was used to prepare both the odorant plate and the assay plate (transfected cell plate) prior to the fluorescence readout using the FDSS/µcell kinetic plate Imager (Hamamatsu, C13299).
# (§9) For the odorant plate, the DMSO dissolved stock solutions were diluted in 19.8 µL of Reading buffer (20 mM HEPES/NaOH (pH 7.4), 1× HBSS (Gibco), 3 mM Na2CO3, 1 mM MgSO4, and 5 mM CaCl2) to give a final concentration ranging from 3.16 nM to 1 mM with 1% DMSO. For the cell plate, the FluoroBrite DMEM (Gibco) was exchanged out with the […]
# (§10) The kinetics of the fluorescence change upon odorant addition were measured using the FDSS/µcell kinetic plate Imager (Hamamatsu, C13299). […]
# OR1_N93T = OR1_N93T (Bombyx mori, UniProt Q5WA61, N93T); assay: GCaMP6 calcium flux assay, BmOR1/Orco mutant N93T; type: cell-based
# Chain of OR1_N93T (Q5WA61 entry or part of it N93T): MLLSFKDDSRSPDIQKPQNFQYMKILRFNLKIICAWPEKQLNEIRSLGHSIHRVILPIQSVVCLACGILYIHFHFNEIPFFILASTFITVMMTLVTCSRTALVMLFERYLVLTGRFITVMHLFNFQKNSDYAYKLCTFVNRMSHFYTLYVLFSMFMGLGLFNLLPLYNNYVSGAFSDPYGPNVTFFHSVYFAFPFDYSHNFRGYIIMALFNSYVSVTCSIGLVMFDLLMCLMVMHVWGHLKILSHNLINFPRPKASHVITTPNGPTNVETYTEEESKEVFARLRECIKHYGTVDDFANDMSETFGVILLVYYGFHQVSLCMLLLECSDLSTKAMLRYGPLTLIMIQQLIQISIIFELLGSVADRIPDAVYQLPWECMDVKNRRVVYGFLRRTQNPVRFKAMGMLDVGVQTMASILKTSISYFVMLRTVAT
# Chain of OR1_N93T (Q7YT34 entry or part of it, stated change not applied, further chain): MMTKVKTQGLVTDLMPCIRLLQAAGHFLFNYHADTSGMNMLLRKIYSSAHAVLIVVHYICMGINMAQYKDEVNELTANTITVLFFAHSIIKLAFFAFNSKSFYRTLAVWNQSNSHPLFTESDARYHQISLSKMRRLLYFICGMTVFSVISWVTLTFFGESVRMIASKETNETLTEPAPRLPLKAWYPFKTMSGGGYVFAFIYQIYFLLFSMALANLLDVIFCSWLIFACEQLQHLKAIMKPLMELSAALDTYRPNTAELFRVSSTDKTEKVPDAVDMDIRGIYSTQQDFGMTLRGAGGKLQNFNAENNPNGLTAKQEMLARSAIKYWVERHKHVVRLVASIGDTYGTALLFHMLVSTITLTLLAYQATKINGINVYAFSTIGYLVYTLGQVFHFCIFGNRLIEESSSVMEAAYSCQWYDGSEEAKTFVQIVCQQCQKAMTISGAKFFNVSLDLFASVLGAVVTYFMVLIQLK
# Text: (§11) The first insect pheromone system characterized at the molecular level is that of Bombyx mori, a moth long known to navigate towards its mate guided solely by pheromone cues with impressive navigation accuracy. Two PR/Orco complexes, BmOR1/BmOrco and BmOR3/BmOrco, have been linked to the behavioral responses to pheromones in B. mori (Figure 1A). The conspecific pheromone, bombykol, is detected through BmOR1/Orco and leads to sexual attraction. The heterospecific pheromone, bombykal, is sensed through BmOR3/Orco, and leads to suppression of mating behavior. We first characterized the extent to which both PR/Orco complexes are selective towards their cognate ligands. We used a previously established calcium flux functional assay where we co-transfected HEK293 cells with either BmOR1 or BmOR3, along with the coreceptor, BmOrco (here on referred to as Orco), and the fluorescent calcium reporter, GCaMP6 (Figure 1C). In this assay, ligand-activation of the heteromeric ion channel complexes by addition of either bombykol or bombykal leads to calcium influx, read out as GCaMP6 fluorescence changes that can be monitored in real-time and dose-dependent manner using a fluorescence plate reader. […]
# (§12) HEK293T cells were maintained at 37°C with 5% carbon dioxide and grown in high glucose DMEM enhanced with 10% FBS and 1% GlutaMAX (Gibco). […] Cells were kept at 37°C for 18-20 hours before being used for fluorescence plate reading. […]
# as §8
# (§13) For the odorant plate, the DMSO dissolved stock solutions were diluted in 19.8 µL of Reading buffer (20 mM HEPES/NaOH (pH 7.4), 1× HBSS (Gibco), 3 mM Na2CO3, 1 mM MgSO4, and 5 mM CaCl2) to give a final concentration ranging from 3.16 nM to 1 mM with 1% DMSO. […]
# as §10
# OR3_T91N = OR3_T91N (Bombyx mori, UniProt Q5FBE0, T91N); assay: GCaMP6 calcium flux assay, BmOR3/Orco mutant T91N; type: cell-based
# Chain of OR3_T91N (Q5FBE0 entry or part of it T91N): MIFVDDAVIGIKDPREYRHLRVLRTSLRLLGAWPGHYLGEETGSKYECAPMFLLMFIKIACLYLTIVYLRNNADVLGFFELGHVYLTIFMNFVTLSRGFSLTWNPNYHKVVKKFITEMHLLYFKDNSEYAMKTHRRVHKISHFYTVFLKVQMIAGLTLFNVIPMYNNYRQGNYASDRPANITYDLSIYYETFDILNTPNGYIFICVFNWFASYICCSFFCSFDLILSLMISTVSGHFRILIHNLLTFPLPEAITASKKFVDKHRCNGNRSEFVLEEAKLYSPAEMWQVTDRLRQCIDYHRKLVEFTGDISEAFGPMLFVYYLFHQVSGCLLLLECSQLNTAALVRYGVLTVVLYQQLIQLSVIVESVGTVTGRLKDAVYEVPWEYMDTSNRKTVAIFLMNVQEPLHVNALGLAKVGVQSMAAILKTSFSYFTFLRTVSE
# Chain of OR3_T91N (Q7YT34 entry or part of it, stated change not applied, further chain): as the sequence (Q7YT34 entry or part of it, stated change not applied, further chain) above
# Text: as §11, §12, §8, §13, §10
# OR1_N93A = OR1_N93A (Bombyx mori, UniProt Q5WA61, N93A); assay: GCaMP6 calcium flux assay, BmOR1/Orco mutant N93A; type: cell-based
# Chain of OR1_N93A (Q5WA61 entry or part of it N93A): as the sequence (Q5WA61 entry or part of it N93T) above, with T93A counted along it
# Chain of OR1_N93A (Q7YT34 entry or part of it, stated change not applied, further chain): as the sequence (Q7YT34 entry or part of it, stated change not applied, further chain) above
# Text: as §11, §12, §8, §13, §10
# OR1_M344A = OR1_M344A (Bombyx mori, UniProt Q5WA61, M344A); assay: GCaMP6 calcium flux assay, BmOR1/Orco mutant M344A; type: cell-based
# Chain of OR1_M344A (Q5WA61 entry or part of it M344A): as the sequence (Q5WA61 entry or part of it N93T) above, with T93N, M344A counted along it
# Chain of OR1_M344A (Q7YT34 entry or part of it, stated change not applied, further chain): as the sequence (Q7YT34 entry or part of it, stated change not applied, further chain) above
# Text: as §11, §12, §8, §13, §10
# OR1_S60A = OR1_S60A (Bombyx mori, UniProt Q5WA61, S60A); assay: GCaMP6 calcium flux assay, BmOR1/Orco mutant S60A; type: cell-based
# Chain of OR1_S60A (Q7YT34 entry or part of it, stated change not applied): as the sequence (Q7YT34 entry or part of it, stated change not applied, further chain) above
# Chain of OR1_S60A (Q5WA61 entry or part of it S60A): as the sequence (Q5WA61 entry or part of it N93T) above, with S60A, T93N counted along it
# Text: as §11, §12, §8, §13, §10
# OR1_I343A = assay: GCaMP6 calcium flux assay, BmOR1/Orco mutant I343A; type: cell-based, Bombyx mori
# Text: as §11, with “We used a previously established calcium flux functional assay where we co-transfected HEK293 cells with either BmOR1 or BmOR3, along with the coreceptor, BmOrco (here on referred to as Orco), and the fluorescent calcium reporter, GCaMP6 (Figure 1C).” left out
# as §12, §10
# OR1_L340A = OR1_L340A (Bombyx mori, UniProt Q5WA61, L340A); assay: GCaMP6 calcium flux assay, BmOR1/Orco mutant L340A; type: cell-based
# Chain of OR1_L340A (Q5WA61 entry or part of it L340A): as the sequence (Q5WA61 entry or part of it N93T) above, with T93N, L340A counted along it
# Chain of OR1_L340A (Q7YT34 entry or part of it, stated change not applied, further chain): as the sequence (Q7YT34 entry or part of it, stated change not applied, further chain) above
# Text: as §11, §12, §8, §13, §10
# OR1_L342A = OR1_L342A (Bombyx mori, UniProt Q5WA61, L342A); assay: GCaMP6 calcium flux assay, BmOR1/Orco mutant L342A; type: cell-based
# Chain of OR1_L342A (Q7YT34 entry or part of it, stated change not applied): as the sequence (Q7YT34 entry or part of it, stated change not applied, further chain) above
# Chain of OR1_L342A (Q5WA61 entry or part of it L342A): as the sequence (Q5WA61 entry or part of it N93T) above, with T93N, L342A counted along it
# Text: as §11, §12, §8, §13, §10
# BmOR3/Orco = BmOR3/Orco (Bombyx mori, UniProt Q5FBE0); assay: GCaMP6 calcium flux assay, wild-type BmOR3/Orco; type: cell-based
# Chain of BmOR3/Orco (Q5FBE0 entry or part of it): as the sequence (Q5FBE0 entry or part of it T91N) above, with N91T counted along it
# Chain of BmOR3/Orco (Q7YT34 entry or part of it, further chain): as the sequence (Q7YT34 entry or part of it, stated change not applied, further chain) above
# Text: as §1, §2, §3, §4, §5, §6, §7, §8, §9, §10
# OR3_K58A = OR3_K58A (Bombyx mori, UniProt Q5FBE0, K58A); assay: GCaMP6 calcium flux assay, BmOR3/Orco mutant K58A; type: cell-based
# Chain of OR3_K58A (Q5FBE0 entry or part of it K58A): as the sequence (Q5FBE0 entry or part of it T91N) above, with K58A, N91T counted along it
# Chain of OR3_K58A (Q7YT34 entry or part of it, stated change not applied, further chain): as the sequence (Q7YT34 entry or part of it, stated change not applied, further chain) above
# Text: as §1, §2, §3, §4, §5, §6, §7, §8, §9, §10
# OR3_T91A = OR3_T91A (Bombyx mori, UniProt Q5FBE0, T91A); assay: GCaMP6 calcium flux assay, BmOR3/Orco mutant T91A; type: cell-based
# Chain of OR3_T91A (Q7YT34 entry or part of it, stated change not applied): as the sequence (Q7YT34 entry or part of it, stated change not applied, further chain) above
# Chain of OR3_T91A (Q5FBE0 entry or part of it T91A): as the sequence (Q5FBE0 entry or part of it T91N) above, with N91A counted along it
# Text: as §11, §12, §8, §13, §10
# OR3_K58S = OR3_K58S (Bombyx mori, UniProt Q5FBE0, K58S); assay: GCaMP6 calcium flux assay, BmOR3/Orco mutant K58S; type: cell-based
# Chain of OR3_K58S (Q5FBE0 entry or part of it K58S): as the sequence (Q5FBE0 entry or part of it T91N) above, with K58S, N91T counted along it
# Chain of OR3_K58S (Q7YT34 entry or part of it, stated change not applied, further chain): as the sequence (Q7YT34 entry or part of it, stated change not applied, further chain) above
# Text: as §1, §2, §3, §4, §5, §6, §7, §8, §9, §10
# OR1_F161A = assay: GCaMP6 calcium flux assay, BmOR1/Orco mutant F161A; type: cell-based, Bombyx mori
# Text: as §11, with “We used a previously established calcium flux functional assay where we co-transfected HEK293 cells with either BmOR1 or BmOR3, along with the coreceptor, BmOrco (here on referred to as Orco), and the fluorescent calcium reporter, GCaMP6 (Figure 1C).” left out
# as §12, §10
# OR3_K58Q = OR3_K58Q (Bombyx mori, UniProt Q5FBE0, K58Q); assay: GCaMP6 calcium flux assay, BmOR3/Orco mutant K58Q; type: cell-based
# Chain of OR3_K58Q (Q5FBE0 entry or part of it K58Q): as the sequence (Q5FBE0 entry or part of it T91N) above, with K58Q, N91T counted along it
# Chain of OR3_K58Q (Q7YT34 entry or part of it, stated change not applied, further chain): as the sequence (Q7YT34 entry or part of it, stated change not applied, further chain) above
# Text: as §1, §2, §3, §4, §5, §6, §7, §8, §9, §10
# B. mori male moths = test system: B. mori male moths; set-up: method as in PMID 24744736, PMID 22836825; conditions: conspecific male moths; cited from earlier work
# Chain of BmOR1/Orco (Q7YT34 entry or part of it): as the sequence (Q7YT34 entry or part of it, stated change not applied, further chain) above
# Chain of BmOR1/Orco (Q5WA61 entry or part of it): as the sequence (Q5WA61 entry or part of it N93T) above, with T93N counted along it
compound,measurement,setting,value
"CCC/C=C\C=C\CCCCCCCCCO [Bombykol, bombykol]",EC50,"BmOR1/Orco; EC50, HEK293 cells co-transfected with BmOR1, BmOrco, GCaMP6",0.27 µM
same,EC50,"BmOR1/Orco; Mean (-log EC50 ± SE), wild-type BmOR1/Orco",0.269 µM
same,Hill Coefficient (n± SE),BmOR1/Orco; wild-type BmOR1/Orco,1.6 ± 0.1
same,Max (ΔF/F ± SE),"BmOR1/Orco; wild-type BmOR1/Orco, ΔF/F at highest ligand concentration",0.98 ± 0.07 ΔF/F
same,EC50,OR1_N93T,1 µM
same,Hill Coefficient (n± SE),OR1_N93T; OR1_N93T,2.0 ± 0.3
same,Max (ΔF/F ± SE),OR1_N93T; OR1_N93T,1.02 ± 0.08 ΔF/F
same,EC50,OR3_T91N,1 µM
same,Hill Coefficient (n± SE),OR3_T91N; OR3_T91N,1.7 ± 0.2
same,Max (ΔF/F ± SE),OR3_T91N; OR3_T91N,0.64 ± 0.07 ΔF/F
same,EC50,OR1_N93A,5.01 µM
same,Hill Coefficient (n± SE),OR1_N93A; OR1_N93A,1.0 ± 0.3
same,Max (ΔF/F ± SE),OR1_N93A; OR1_N93A,0.63 ± 0.04 ΔF/F
same,EC50,OR1_M344A,1 µM
same,Hill Coefficient (n± SE),OR1_M344A; OR1_M344A,1.5 ± 0.3
same,Max (ΔF/F ± SE),OR1_M344A; OR1_M344A,0.84 ± 0.03 ΔF/F
same,EC50,OR1_S60A,0.501 µM
same,Hill Coefficient (n± SE),OR1_S60A; OR1_S60A,2.1 ± 0.3
same,Max (ΔF/F ± SE),OR1_S60A; OR1_S60A,1.1 ± 0.1 ΔF/F
same,Max (ΔF/F ± SE),OR1_I343A,0.14 ± 0.01 ΔF/F
same,EC50,OR1_L340A,2 µM
same,Hill Coefficient (n± SE),OR1_L340A; OR1_L340A,2.0 ± 0.3
same,Max (ΔF/F ± SE),OR1_L340A; OR1_L340A,0.48 ± 0.08 ΔF/F
same,EC50,OR1_L342A,0.794 µM
same,Hill Coefficient (n± SE),OR1_L342A; OR1_L342A,1.4 ± 0.2
same,Max (ΔF/F ± SE),OR1_L342A; OR1_L342A,0.87 ± 0.08 ΔF/F
same,EC50,"BmOR3/Orco; EC50, HEK293 cells co-transfected with BmOR3, BmOrco, GCaMP6",1.3 µM
same,EC50,"BmOR3/Orco; Mean (-log EC50 ± SE), wild-type BmOR3/Orco",1.29 µM
same,"response to non-cognate pheromone, fold smaller than cognate pheromone",BmOR3/Orco; bombykol vs cognate bombykal at BmOR3/Orco,~ 10 fold
same,Hill Coefficient (n± SE),BmOR3/Orco; wild-type BmOR3/Orco,1.0 ± 0.1
same,Max (ΔF/F ± SE),"BmOR3/Orco; wild-type BmOR3/Orco, ΔF/F at highest ligand concentration",0.61 ± 0.04 ΔF/F
same,EC50,OR3_K58A,0.251 µM
same,Hill Coefficient (n± SE),OR3_K58A; OR3_K58A,15 ± 6
same,Max (ΔF/F ± SE),OR3_K58A; OR3_K58A,0.15 ± 0.06 ΔF/F
same,EC50,OR3_T91A,3.98 µM
same,Hill Coefficient (n± SE),OR3_T91A; OR3_T91A,0.9 ± 0.3
same,Max (ΔF/F ± SE),OR3_T91A; OR3_T91A,0.31 ± 0.05 ΔF/F
same,EC50,OR3_K58S,3.16 µM
same,Hill Coefficient (n± SE),OR3_K58S; OR3_K58S,1.2 ± 0.3
same,Max (ΔF/F ± SE),OR3_K58S; OR3_K58S,0.42 ± 0.07 ΔF/F
same,Max (ΔF/F ± SE),OR1_F161A,0.04 ± 0.02 ΔF/F
same,EC50,OR3_K58Q,0.794 µM
same,Hill Coefficient (n± SE),OR3_K58Q; OR3_K58Q,5 ± 3
same,Max (ΔF/F ± SE),OR3_K58Q; OR3_K58Q,0.66± 0.06 ΔF/F
same,behavioral response,B. mori male moths,aggressive attraction behavior
